“And” between values parts separate entries of the source, which are not always exact repeats. Identical values can stand only once. ± gives the expanded uncertainty stated by the source.
Key:
[1] = refractive index (Na D-line) (dimensionless); details: 100 kPa, Liquid, Standard Abbe refractometry
[2] = 100 kPa, Liquid; for speed of sound: Frequency=3 MHz, Single path-length method; for mass density: Vibrating tube method
[3] = refractive index (Na D-line) (dimensionless); xn = mol fraction of the nth substance listed; details: 100 kPa, Liquid, Standard Abbe refractometry, x2 = 0
[4] = xn = mol fraction of the nth substance listed; details: 100 kPa, Liquid, x2 = 0; for speed of sound: Frequency=3 MHz, Single path-length method; for mass density: Vibrating tube method

With `CC(=O)CC(C)C` [4-methylpentan-2-one] the refractive index ([1]; 293.15 K) was 1.396 ± 0.005, the refractive index ([1]; 303.15 K) was 1.391 ± 0.005 and the refractive index ([1]; 313.15 K) was 1.387 ± 0.005. For the same compound, the speed of sound ([2]; 293.15 K) was 1212.3 ± 1.6 m/s, the mass density ([2]; 293.15 K) was 801 ± 3 kg/m3 and 800 ± 3 kg/m3 and the speed of sound ([2]; 303.15 K) was 1171.4 ± 1.6 m/s. It also gave a mass density ([2]; 303.15 K) of 792 ± 3 kg/m3, a speed of sound ([2]; 313.15 K) of 1131.4 ± 1.6 m/s and a mass density ([2]; 313.15 K) of 782 ± 3 kg/m3.

Work on `CC(C)=O` [acetone] yielded a refractive index ([1]; 293.15 K) of 1.359 ± 0.005, a refractive index ([1]; 303.15 K) of 1.353 ± 0.005 and a refractive index ([1]; 313.15 K) of 1.348 ± 0.005. The speed of sound ([2]; 293.15 K) was 1184.3 ± 1.4 m/s, the mass density ([2]; 293.15 K) was 790 ± 3 kg/m3 and the speed of sound ([2]; 303.15 K) was 1139.4 ± 1.4 m/s. It also gave a mass density ([2]; 303.15 K) of 779 ± 3 kg/m3, a speed of sound ([2]; 313.15 K) of 1094.6 ± 1.4 m/s and a mass density ([2]; 313.15 K) of 767 ± 3 kg/m3.

For `CC(C)=O` [acetone] + CC(=O)CC(C)C, the refractive index ([3]; 293.15 K) was 1.359 ± 0.005, the refractive index ([3]; 303.15 K) was 1.353 ± 0.005 and the refractive index ([3]; 313.15 K) was 1.348 ± 0.005. It also gave a speed of sound ([4]; 293.15 K) of 1184.3 ± 1.4 m/s, a mass density ([4]; 293.15 K) of 790 ± 3 kg/m3 and a speed of sound ([4]; 303.15 K) of 1139.4 ± 1.4 m/s. For the same compound, the mass density ([4]; 303.15 K) was 779 ± 3 kg/m3, the speed of sound ([4]; 313.15 K) was 1094.6 ± 1.4 m/s and the mass density ([4]; 313.15 K) was 767 ± 3 kg/m3.

Work on `CC#N` [acetonitrile] yielded a refractive index ([1]; 293.15 K) of 1.344 ± 0.005, a refractive index ([1]; 303.15 K) of 1.339 ± 0.005 and a refractive index ([1]; 313.15 K) of 1.334 ± 0.005. The speed of sound ([2]; 293.15 K) was 1299.7 ± 1.3 m/s, the mass density ([2]; 293.15 K) was 782 ± 3 kg/m3 and the speed of sound ([2]; 303.15 K) was 1258.8 ± 1.3 m/s. It also gave a mass density ([2]; 303.15 K) of 771 ± 3 kg/m3, a speed of sound ([2]; 313.15 K) of 1218.4 ± 1.3 m/s and a mass density ([2]; 313.15 K) of 760 ± 3 kg/m3.

In the case of `CC#N` [acetonitrile] + CC(=O)CC(C)C, the refractive index ([3]; 293.15 K) is reported as 1.344 ± 0.005, the refractive index ([3]; 303.15 K) is reported as 1.339 ± 0.005 and the refractive index ([3]; 313.15 K) is reported as 1.334 ± 0.005. The speed of sound ([4]; 293.15 K) was 1299.7 ± 1.3 m/s, the mass density ([4]; 293.15 K) was 782 ± 3 kg/m3 and the speed of sound ([4]; 303.15 K) was 1258.8 ± 1.3 m/s. For the same compound, the mass density ([4]; 303.15 K) was 771 ± 3 kg/m3, the speed of sound ([4]; 313.15 K) was 1218.4 ± 1.3 m/s and the mass density ([4]; 313.15 K) was 760 ± 3 kg/m3.

`C1CCCCC1` [cyclohexane] gave a refractive index ([1]; 293.15 K) of 1.426 ± 0.005, a refractive index ([1]; 303.15 K) of 1.421 ± 0.005 and a refractive index ([1]; 313.15 K) of 1.415 ± 0.005. For the same compound, the speed of sound ([2]; 293.15 K) was 1279.5 ± 1.4 m/s, the mass density ([2]; 293.15 K) was 779 ± 3 kg/m3 and 778 ± 3 kg/m3 and the speed of sound ([2]; 303.15 K) was 1230.1 ± 1.4 m/s. The mass density ([2]; 303.15 K) was 769 ± 3 kg/m3, the speed of sound ([2]; 313.15 K) was 1181.8 ± 1.4 m/s and the mass density ([2]; 313.15 K) was 760 ± 3 kg/m3 and 759 ± 3 kg/m3.

In the case of `C1CCCCC1` [cyclohexane] + CC(=O)CC(C)C, the refractive index ([3]; 293.15 K) is reported as 1.426 ± 0.005, the refractive index ([3]; 303.15 K) is reported as 1.421 ± 0.005 and the refractive index ([3]; 313.15 K) is reported as 1.415 ± 0.005. For the same compound, the speed of sound ([4]; 293.15 K) was 1279.5 ± 1.4 m/s, the mass density ([4]; 293.15 K) was 779 ± 3 kg/m3 and the speed of sound ([4]; 303.15 K) was 1230.1 ± 1.4 m/s. The mass density ([4]; 303.15 K) was 769 ± 3 kg/m3, the speed of sound ([4]; 313.15 K) was 1181.8 ± 1.4 m/s and the mass density ([4]; 313.15 K) was 760 ± 3 kg/m3.

In the case of `C[S+](C)[O-]` [dimethyl sulfoxide], the refractive index ([1]; 293.15 K) is reported as 1.48 ± 0.005 and 1.479 ± 0.005, the refractive index ([1]; 303.15 K) is reported as 1.475 ± 0.005 and the refractive index ([1]; 313.15 K) is reported as 1.47 ± 0.005. It also gave a speed of sound ([2]; 293.15 K) of 1504.7 ± 1.4 m/s, a mass density ([2]; 293.15 K) of 1100 ± 3 kg/m3 and a speed of sound ([2]; 303.15 K) of 1471 ± 1.4 m/s. The mass density ([2]; 303.15 K) was 1090 ± 3 kg/m3, the speed of sound ([2]; 313.15 K) was 1437.4 ± 1.4 m/s and the mass density ([2]; 313.15 K) was 1080 ± 3 kg/m3.

In the case of `C[S+](C)[O-]` [dimethyl sulfoxide] + CC(=O)CC(C)C, the refractive index ([3]; 293.15 K) is reported as 1.48 ± 0.005, the refractive index ([3]; 303.15 K) is reported as 1.475 ± 0.005 and the refractive index ([3]; 313.15 K) is reported as 1.47 ± 0.005. It also gave a speed of sound ([4]; 293.15 K) of 1504.7 ± 1.4 m/s, a mass density ([4]; 293.15 K) of 1100 ± 3 kg/m3 and a speed of sound ([4]; 303.15 K) of 1471 ± 1.4 m/s. For the same compound, the mass density ([4]; 303.15 K) was 1090 ± 3 kg/m3, the speed of sound ([4]; 313.15 K) was 1437.4 ± 1.4 m/s and the mass density ([4]; 313.15 K) was 1080 ± 3 kg/m3.

From the NIST ThermoML archive (doi:10.1016/j.jct.2017.06.008)
